Test results published in patent US20070092474A1, “Carnitine salt, preliposome which contains it and dermocosmetic formula for topical use based upon said carnitine salt” (priority 2003, published 2007).
Several values for one entry are separate records, joined by “and”; a condition that tells them apart may be missing. Equal entries are not always repeated.

Tested on: skin blemishes caused by cellulite and localised adiposity
Assay: Thigh circumference measured with a measuring tape, dermatological test of the cosmetic gel
Format: in vivo, female volunteers
Parameters: RIGHT THIGH CIRCUMFERENCE 1/3 T0 / RIGHT THIGH CIRCUMFERENCE 3/3 T15 / RIGHT THIGH CIRCUMFERENCE 3/3 T30 / RIGHT THIGH CIRCUMFERENCE 3/3 T60 / RIGHT THIGH CIRCUMFERENCE 1/3 T15 / RIGHT THIGH CIRCUMFERENCE 1/3 T60 / RIGHT THIGH CIRCUMFERENCE 2/3 T0 / RIGHT THIGH CIRCUMFERENCE 2/3 T15 / RIGHT THIGH CIRCUMFERENCE 2/3 T30 / RIGHT THIGH CIRCUMFERENCE 2/3 T60 / RIGHT THIGH CIRCUMFERENCE 3/3 T0 / LEFT THIGH CIRCUMFERENCE 3/3 T60 / LEFT THIGH CIRCUMFERENCE 1/3 T15 / LEFT THIGH CIRCUMFERENCE 1/3 T30 / LEFT THIGH CIRCUMFERENCE 1/3 T60 / LEFT THIGH CIRCUMFERENCE 2/3 T0 / LEFT THIGH CIRCUMFERENCE 2/3 T15 / LEFT THIGH CIRCUMFERENCE 3/3 T0: unit not given beside the values
Method: A dermatological test was carried out on 25 female volunteers between 18 and 65 years of age, with the backing of the Department of Physiological and Pharmacological Sciences of the university of Pavia. The investigation aimed to check the modification of three anatomical-physiological parameters, qualifying the unaesthetic-functional aspect connected to the manifestation of so-called cellulite and subcutaneous hypertriglyceridaemia: measurement of the skin folds, measurement of the circumference of the thighs, thermographic skin measurement.
The test stretched out over 60 days with the continual daily application of the aforementioned preparation of cosmetic gel. The measurements were carried out after 15, 30 and 60 days. The detail of the test protocol and of the results obtained is shown hereafter.
25 female volunteers aged between 18 and 65, with the presence of skin blemishes caused by cellulite and localised adiposity, were selected according to the following criteria: good general state of health, absence of skin pathologies, not being under medication, commitment not to vary the normal daily routine, no medical history of atopy.
The samples were tested by uniformly applying them on “Glute SX Glute DJ (Femoris Posto SX Femoris Posto DX Femoris Ant. SX Femoris Ant. DX” every day at least once per day for the entire duration of the test.
At the time of inclusion in the study and during the subsequent checks after 15 days (T15), after 30 days (T30) and after 60 days (T60) of treatment the following instrumental measurements were taken: • plicometry (through a plicometer) • thigh circumference (through a measuring tape broken into millimetres) • contact thermography (through liquid crystal thermographic plates).

[1] = MEDIA of 25 volunteers, T0 at inclusion, before treatment
[2] = MEDIA of 25 volunteers, after 15 days of daily gel application
[3] = MEDIA of 25 volunteers, after 30 days of daily gel application
[4] = MEDIA of 25 volunteers, after 60 days of daily gel application
[5] = individual volunteer, T0 at inclusion, before treatment
[6] = individual volunteer, after 15 days of daily gel application
[7] = individual volunteer, after 30 days of daily gel application
[8] = individual volunteer, after 60 days of daily gel application

## carnitine hydroxycitrate [carnitine hydroxy citrate]
[1]
  LEFT THIGH CIRCUMFERENCE 1/3 T0, MEDIA: 53.1
  LEFT THIGH CIRCUMFERENCE 2/3 T0, MEDIA: 50.2
  LEFT THIGH CIRCUMFERENCE 3/3 T0, MEDIA: 40.3
  RIGHT THIGH CIRCUMFERENCE 1/3 T0, MEDIA: 53.1
  RIGHT THIGH CIRCUMFERENCE 2/3 T0, MEDIA: 50.3
  RIGHT THIGH CIRCUMFERENCE 3/3 T0, MEDIA: 40.4
[2]
  LEFT THIGH CIRCUMFERENCE 1/3 T15, MEDIA: 52.7
  LEFT THIGH CIRCUMFERENCE 2/3 T15, MEDIA: 49.7
  LEFT THIGH CIRCUMFERENCE 3/3 T15, MEDIA: 39.8
  RIGHT THIGH CIRCUMFERENCE 1/3 T15, MEDIA: 53.3
  RIGHT THIGH CIRCUMFERENCE 2/3 T15, MEDIA: 49.2
  RIGHT THIGH CIRCUMFERENCE 3/3 T15, MEDIA: 39.5
[3]
  LEFT THIGH CIRCUMFERENCE 1/3 T30, MEDIA: 51.6
  LEFT THIGH CIRCUMFERENCE 2/3 T30, MEDIA: 48.8
  LEFT THIGH CIRCUMFERENCE 3/3 T30, MEDIA: 38.7
  RIGHT THIGH CIRCUMFERENCE 1/3 T30, MEDIA: 51.8
  RIGHT THIGH CIRCUMFERENCE 2/3 T30, MEDIA: 48.8
  RIGHT THIGH CIRCUMFERENCE 3/3 T30, MEDIA: 38.8
[4]
  LEFT THIGH CIRCUMFERENCE 1/3 T60, MEDIA: 50.7
  LEFT THIGH CIRCUMFERENCE 2/3 T60, MEDIA: 47.9
  LEFT THIGH CIRCUMFERENCE 3/3 T60, MEDIA: 38.1
  RIGHT THIGH CIRCUMFERENCE 1/3 T60, MEDIA: 50.7
  RIGHT THIGH CIRCUMFERENCE 2/3 T60, MEDIA: 47.7
  RIGHT THIGH CIRCUMFERENCE 3/3 T60, MEDIA: 38.0
[5]
  LEFT THIGH CIRCUMFERENCE 1/3 T0: 55.0 and 52.8 (2×) and 51.7 and 64.0 and 55.7 (3×) and 51.0 and 47.6 and 49.0 and 52.5 and 56.6 and 58.1 and 55.2 and 47.1 and 47.0 and 48.5 and 52.1 and 50.2 and 52.7 and 49.7 and 60.6 and 48.2 and 59.2
  LEFT THIGH CIRCUMFERENCE 2/3 T0: 49.9 and 51.3 and 49.0 and 58.4 and 52.4 and 46.9 and 46.2 and 47.9 (2×) and 50.4 and 52.9 and 55.9 (2×) and 56.7 and 48.9 and 46.7 and 52.6 and 44.0 and 45.4 (2×) and 52.0 and 51.4 and 48.2 and 44.9 and 54.6
  LEFT THIGH CIRCUMFERENCE 3/3 T0: 41.2 (2×) and 39.7 (2×) and 48.0 and 37.6 (2×) and 36.4 (2×) and 37.7 and 38.4 and 39.8 and 37.8 and 43.1 and 43.2 and 37.4 and 38.7 (2×) and 37.9 and 47.2 and 44.2 and 38.6 and 43.8 and 36.3 and 46.4
  RIGHT THIGH CIRCUMFERENCE 1/3 T0: 55.0 and 53.2 and 52.0 (2×) and 64.7 and 55.7 (2×) and 50.6 and 48.1 and 49.0 and 53.0 and 56.9 and 59.0 and 55.2 and 52.6 and 47.0 (2×) and 48.3 and 52.2 and 54.9 and 50.2 and 50.8 and 60.8 and 48.2 and 56.0
  RIGHT THIGH CIRCUMFERENCE 2/3 T0: 49.9 and 51.3 and 49.0 and 58.4 and 52.5 and 47.2 and 46.5 and 47.9 (2×) and 50.4 and 52.9 and 55.9 and 56.8 and 49.2 and 46.7 and 52.6 and 44.0 and 45.4 (2×) and 52.0 and 51.4 and 48.2 and 45.3 and 55.6 and 54.6
  RIGHT THIGH CIRCUMFERENCE 3/3 T0: 41.2 (2×) and 39.7 and 48.0 and 37.6 (2×) and 36.4 (2×) and 37.7 and 38.4 (2×) and 39.8 and 37.8 and 45.3 and 43.2 and 37.4 and 38.6 and 39.0 and 37.9 and 39.5 and 47.5 and 44.1 and 43.8 and 36.3 and 46.4
[6]
  LEFT THIGH CIRCUMFERENCE 1/3 T15: 54.5 and 52.3 (2×) and 51.2 and 63.5 and 55.2 (3×) and 50.5 and 47.1 and 48.5 and 52.0 and 56.1 and 57.6 and 54.7 and 46.6 and 46.5 and 48.0 and 51.6 and 49.7 and 52.2 and 49.2 and 60.5 and 47.7 and 58.7
  LEFT THIGH CIRCUMFERENCE 2/3 T15: 49.4 and 50.8 and 48.5 and 57.9 and 51.9 and 46.4 and 45.7 and 47.4 (2×) and 49.9 and 52.4 and 55.4 (2×) and 56.2 and 48.4 and 46.2 and 52.1 and 43.5 and 44.9 (2×) and 51.5 and 50.9 and 47.7 and 44.4 and 54.1
  LEFT THIGH CIRCUMFERENCE 3/3 T15: 40.7 (2×) and 39.2 (2×) and 47.5 and 37.1 (2×) and 35.9 (2×) and 37.2 and 37.9 and 39.3 and 37.3 and 42.6 and 42.7 and 36.9 and 38.2 (2×) and 37.4 and 46.7 and 43.7 and 38.1 and 43.3 and 35.8 and 45.9
  RIGHT THIGH CIRCUMFERENCE 1/3 T15: 55.9 and 52.8 and 53.2 and 65.3 and 55.3 and 49.4 and 48.4 and 49.8 and 53.3 and 57.6 and 59.2 and 54.3 and 50.5 and 48.1 and 56.3 and 48.0 (2×) and 48.8 and 51.8 and 54.5 and 51.0 and 50.8 and 50.4 and 60.4 and 59.8
  RIGHT THIGH CIRCUMFERENCE 2/3 T15: 48.2 and 49.6 and 47.3 (2×) and 56.7 and 50.7 and 46.2 (2×) and 44.5 and 49.8 and 52.3 and 55.6 and 56.5 and 48.7 and 45.0 and 50.9 and 44.0 and 45.2 and 51.8 and 51.0 and 47.9 and 43.2 and 54.2 and 43.7 and 52.9
  RIGHT THIGH CIRCUMFERENCE 3/3 T15: 40.6 and 40.8 and 37.7 (3×) and 49.2 and 38.5 (2×) and 35.3 and 37.2 and 37.1 and 39.7 and 44.5 and 42.3 and 36.6 and 39.2 and 35.5 and 38.7 and 39.4 and 43.2 and 37.5 and 36.4 and 43.9 and 35.8 and 45.5
[7]
  LEFT THIGH CIRCUMFERENCE 1/3 T30: 53.4 and 51.2 (2×) and 50.1 and 62.4 and 54.2 and 49.2 and 46.0 and 47.4 and 50.9 and 55.0 and 56.5 and 53.6 and 45.5 and 54.1 and 45.4 and 46.9 and 50.5 and 54.0 and 49.7 and 52.3 and 48.1 and 59.0 and 46.6 and 57.6
  LEFT THIGH CIRCUMFERENCE 2/3 T30: 48.5 and 49.9 and 47.6 and 57.0 and 51.0 and 45.5 and 44.8 and 46.5 (2×) and 49.0 and 51.5 and 54.5 (2×) and 55.3 and 47.5 and 45.3 and 51.2 and 42.6 and 44.0 (2×) and 50.6 and 50.0 and 46.8 and 43.5 and 53.2
  LEFT THIGH CIRCUMFERENCE 3/3 T30: 39.5 (2×) and 38.0 (2×) and 46.3 and 35.9 (2×) and 34.7 (2×) and 36.0 and 36.7 and 38.1 (2×) and 36.1 and 41.4 and 41.5 and 35.7 and 37.0 (2×) and 36.2 and 45.5 and 43.6 and 42.1 and 34.6 and 44.7
  RIGHT THIGH CIRCUMFERENCE 1/3 T30: 54.5 and 51.4 and 51.8 and 63.9 and 53.9 and 48.0 and 47.0 and 48.4 and 51.9 and 56.2 and 57.8 and 52.9 and 49.3 and 46.7 and 53.6 and 47.1 and 46.5 and 49.9 and 53.0 and 48.6 and 48.5 and 49.0 and 59.0 and 46.4 and 58.4
  RIGHT THIGH CIRCUMFERENCE 2/3 T30: 48.2 and 48.0 and 46.8 and 56.4 and 50.3 and 46.5 and 44.3 and 44.6 (2×) and 49.6 and 51.7 and 55.4 and 56.0 and 48.6 and 45.0 and 50.0 and 44.0 and 50.6 and 51.0 and 47.0 and 47.8 and 43.0 and 53.9 and 44.2 and 51.3
  RIGHT THIGH CIRCUMFERENCE 3/3 T30: 40.5 and 40.3 and 36.6 (2×) and 48.1 and 38.2 and 34.2 and 36.4 (2×) and 38.7 (2×) and 38.4 and 43.4 and 41.0 and 36.2 and 36.8 (2×) and 35.2 and 37.8 and 38.3 and 42.5 and 35.7 and 42.8 and 35.6 and 44.3
[8]
  LEFT THIGH CIRCUMFERENCE 1/3 T60: 52.7 and 50.5 (2×) and 49.4 and 61.7 and 53.4 (2×) and 48.7 and 44.9 and 46.7 and 50.0 and 53.7 and 55.8 and 51.7 and 44.8 and 52.9 and 44.7 and 46.2 and 49.8 and 48.5 and 50.4 and 47.4 and 57.9 and 45.9 and 56.9
  LEFT THIGH CIRCUMFERENCE 2/3 T60: 47.6 and 49.0 and 46.7 and 56.1 and 50.1 and 44.6 and 43.9 and 45.6 (2×) and 48.1 and 50.6 and 53.6 (2×) and 54.4 and 46.6 and 44.4 and 50.3 and 41.7 and 43.1 (2×) and 49.7 and 49.1 and 45.9 and 42.6 and 52.3
  LEFT THIGH CIRCUMFERENCE 3/3 T60: 39.0 (2×) and 37.5 (2×) and 45.8 and 35.4 (2×) and 34.2 (2×) and 35.5 and 36.2 and 37.6 and 35.6 and 41.6 (2×) and 41.0 and 35.2 and 36.5 (2×) and 35.7 and 45.0 and 42.0 and 36.4 and 34.1 and 44.2
  RIGHT THIGH CIRCUMFERENCE 1/3 T60: 53.8 and 50.7 and 50.0 and 62.4 and 53.2 and 47.3 and 46.0 and 47.2 and 51.0 and 55.5 and 56.7 and 52.0 and 48.4 and 44.7 and 52.8 and 45.0 and 45.9 and 49.3 and 51.8 and 48.1 and 48.5 and 48.3 and 57.8 and 45.7 and 56.5
  RIGHT THIGH CIRCUMFERENCE 2/3 T60: 46.8 and 48.1 and 46.5 and 56.4 and 49.2 and 43.7 and 44.5 and 44.7 and 47.2 and 49.7 and 53.8 and 56.0 and 46.3 and 43.5 (2×) and 49.4 and 44.3 and 50.2 and 48.3 and 45.9 and 45.0 and 41.7 and 52.7 and 43.2 and 50.8
  RIGHT THIGH CIRCUMFERENCE 3/3 T60: 38.2 (2×) and 39.3 and 36.2 (3×) and 47.7 and 37.0 (2×) and 33.8 and 35.7 and 35.6 and 43.0 and 40.8 and 34.8 and 37.7 and 34.2 and 37.2 and 37.9 and 41.7 and 36.0 and 33.7 and 42.4 and 34.3 and 44.0
